Marks after values point to notes of the source that are not given here.
What was measured:
[1] = test system: Muscular Activity of the Gastrocnemic Muscle of the Rat; assay: Study in motor nervous conduction: gastrocnemius muscle shocks induced by electrical stimulation of the sciatic nerve; assay type: in vivo; details: for IC50 (%) - concentration that inhibits 50% of the amplitude of muscular shocks: 0.1 ml applied to sciatic nerve, stimulation 0.2 Hz, anesthetized Wistar rats; for Power relative to S (−) ropivacaine: from IC50 of gastrocnemic muscle shocks
Experimental: Wistar male rats, weighing from 180 up to 250 g were under anesthesia with sodium pentobarbital (50 mg.kg^1) via i.p. After being submitted to tracheotomy and mechanically ventilated (Harvad Apparatus mod. 681), the animals were positioned on a surgical table (C. F. Palmer), on ventral decubital, and the four paws were fixed onto the surgical table. In the posterior face and near the back paw, the sciatic nerve was carefully dissected on both paws. A pair of platinum electrodes was fixed on the portion near the nerve and connected to a stimulator Grass mod.S88. Thereafter, the Achilles tendon was isolated and fixed to the isometric tension transducer (Grass FT03) by means of a metallic rod. […] 7). The body temperature was constant during the experiment. After stabilization of the preparation, the muscular shocks were registered in the absence (salty) and in the presence of increasing doses of LAs added in the proximity of the nerve. For each test, the anesthetic that socked the nerve was of 0.1 ml. The solutions were solved in physiologic serum at 0.9%, currently the experiment is maintained at 37° C. temperature.
Particularly, in this register, ropivacaine (S(−)ropi) and the non-racemic mixture (25R:75S) were administered in the perineural region. It should be noted the difference in the power and speed action between the anesthetic. In this figure, gastrocnemic shocks of the muscle were induced by electrical stimulation of the sciatic nerve. The segment of this nerve situated in the distal portion to the stimulation electrodes was soaked with 0.1 ml ropivacaine or with the non-racemic mixture of ropivacaine […] in the concentration of 0.06%. The reduction of the amplitude of the muscular shocks is a function of the number of nervous motor fibers under effective action of the anesthetics.
The concentration that inhibits 50% of the amplitude of muscular shocks (IC50) seeks is used for comparative purposes of the power between anesthetics.

[2] = test system: isolated heart of the rat; assay: Effects in the electrical activity (ECG) in isolated heart of the rat (Langendorff modified); details: for cardiac toxicity (cardiotoxicity) in relation to ropivacaine: conclusion from isolated rat heart
Source text: In the experiments “in vitro”, adult male Wistar rats were used, weighing from 200 up to 350 g. The animals were slaughtered under anesthesia with ethyl ether. Thereafter, the heart was quickly removed and immersed, at room temperature, on Tyrode solution, composed in mM: NaCl, 120; KCl, 5.4; MgCl2, 1.2; CaCl2, 1.25; NaH2PO4, 2.0; NaHCO3, 27; Glucose, 11. The pH of this solution was adjusted to 7.4±0.02, under bubbling with carbogenic mixture (95% of O2 and 5% of CO2).
The heart was fixed, through the aorta, to a metallic tube and the latter was connected to a peristaltic pump (Milan^R). In order to maintain the feasibility of the preparation, the heart was perfused with a Tyrode solution at a flow of 8 ml.min^−1 maintained at 37° C. The drugs tested were diluted in the perfusion solution in the desired concentration. Thereafter, the heart was immersed in a recipient containing 150 ml of Tyrode solution maintained at 37° C. For registration of the ECG, three pipettes (electrodes), filled in with KCl 1M were positioned inside the chamber, the nearest possible to the heart. The electrical signals generated by the heart were amplified (Amplifier type 3A9) and registered in polygraph (Gould Brush mod.2400). After stabilization of the preparation, the experimental protocol with the infusion of ALs in crescent concentrations (0.1 a 10 μM), at intervals of 5 minutes between them, was started. The heart was perfused during 5 minutes for each concentration. Only one drug was tested for each heart.
The ECG was continuously registered in the absence (control) and in the presence of drugs for analysis. After the infusion of the last concentration, the preparation was washed during 30 minutes with the Tyrode solution without the AL, aiming to evaluate the reversibility of the effect of the drug.

[3] = spinal anesthesia; Gautier et al. 1999; cited from earlier work
[4] = 0.1 to 10 μM, 6 experiments, FIG. 4

| Compound | IC50 (%) - concentration that inhibits 50% of the amplitude of muscular shocks [1] | Power relative to S (−) ropivacaine [1] | power (motor blocking) greater in comparison with ropivacaine ([1]; motor blocking, versus pure ropivacaine) [%] | effect on CF (cardiac frequency) [2, 4] | effect on PR interval [2, 4] | cardiac toxicity (cardiotoxicity) in relation to ropivacaine [2] | effect on ECG of isolated heart ([2]; perfusion with 1 μM) | effect on PR interval ([2]; even in the concentration of 10 μM) | less potent than racemic bupivacaine [3] |
| --- | --- | --- | --- | --- | --- | --- | --- | --- | --- |
| CCCN1CCCCC1C(=O)Nc1c(C)cccc1C (racemic) [RS (±) Ropi, (R,S)-N-(2,6-dimethylphenyl)-1-propyl-2-piperidinocarboxamide] | 0.036* % | 1.94* | ~90 | greater depressors effect of CF | increase in PR interval | significantly higher cardiotoxicity | – | – | – |
| CCCN1CCCC[C@@H]1C(=O)Nc1c(C)cccc1C [R (+) Ropi, (R)-N-(2,6-dimethylphenyl)-1-propyl-2-piperidinocarboxamide] | 0.043* % | 1.63* | – | greater depressors effect of CF | increase in PR interval | significantly higher cardiotoxicity | important blocking of the cardiac vessel | – | – |
| CCCN1CCCC[C@H]1C(=O)Nc1c(C)cccc1C [S (−) Ropi, (S)-N-(2,6-dimethylphenyl)-1-propyl-2-piperidinocarboxamide] | 0.070% | 1.0 | – | – | – | – | – | do not alter the PR interval | about 50% |
